Values quoted from earlier work as cited in patent US20240122227A1, “AEROSOLIZABLE MATERIAL” (Nicoventures Trading Limited, priority 2019, published 2024).

Target: CB2 receptor compared to the CB1 receptor (Homo sapiens, UniProt P34972)
Settings: see Br J Pharmacol. 2001 October; 134(4): 845-852

CB2 receptor compared to the CB1 receptor, sequence (P34972 whole entry): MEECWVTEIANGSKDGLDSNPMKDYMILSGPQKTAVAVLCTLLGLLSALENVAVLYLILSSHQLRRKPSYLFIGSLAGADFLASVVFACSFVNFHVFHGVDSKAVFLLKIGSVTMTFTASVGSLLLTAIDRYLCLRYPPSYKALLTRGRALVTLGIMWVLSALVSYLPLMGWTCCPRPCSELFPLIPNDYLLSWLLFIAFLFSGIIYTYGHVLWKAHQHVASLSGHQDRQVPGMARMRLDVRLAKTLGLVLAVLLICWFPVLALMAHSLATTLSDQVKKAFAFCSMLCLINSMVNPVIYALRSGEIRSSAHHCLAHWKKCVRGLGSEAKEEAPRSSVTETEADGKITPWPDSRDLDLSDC

Row | Compound | selectivity for the CB2 receptor compared to the CB1 receptor
1 | C=C(C)[C@H]1CCC(C)=C[C@@H]1c1c(O)cc(CCCCC)cc1O [(+)-cannabidiol] | increased selectivity for the CB2 receptor compared to the CB1 receptor
2 | C=C(C)[C@@H]1CCC(C)=C[C@H]1c1c(O)cc(CCCCC)cc1O [(−)-cannabidiol] | does not show any selectivity between the two receptors
